Tests used:
SBK1 = biological target: T1, SBK1 (Homo sapiens, UniProt Q52WX2); assay: KINOMEscan binding assay; conditions: read-out: % Retention on Solid Support
T1 construct: purchased DiscoveRx KINOMEscan
Description: (§1) As there are no commercial or in-house kinase assays available for CDK3, CDK5, CDK11 and CDK13, the inhibitory abilities of i-CDK9 toward these CDKs were thus evaluated in the DiscoveRx KINOMEscan assay, which is based on a proprietary active site-directed competition-binding platform ([Fabian et al., 2005]).
(§2) The inhibitory activity of i-CDK9 for CDK1-CycB (Upstate/Millipore), CDK2-CycA (Invitrogen), CDK4-CycD1 (Novartis), CDK7-CycH-MAT1 (Invitrogen), and CDK9-CycT1 (Invitrogen) was assessed in the AlphaScreen (PerkinElmer, Inc)-based kinase assay developed at Novartis. Briefly, each CDK–cyclin pair was pre-incubated with i-CDK9 for 15 min, followed by addition of kinase substrates (ELK for CDK1 and CDK2, RB for CDK4, and CDK7tide for CDK7 and CDK9). The mixture was incubated at room temperature for additional 4–5 hr. The reaction was stopped and read on Envision (PerkinElmer, Inc). Selectivity against a large panel of over 400 kinases was evaluated using the KINOMEscan platform (DiscoveRx, CA) employing a proprietary active site-directed competition binding assay ([Fabian et al., 2005]). The assay was conducted at two different concentrations of i-CDK9 (1 and 10 µM) by DiscoveRx.

LIMK1 = biological target: T2, LIMK1 (Homo sapiens, UniProt P53667); assay: KINOMEscan binding assay; conditions: read-out: % Retention on Solid Support
T2 construct: purchased DiscoveRx KINOMEscan
T2 sequence (P53667 whole entry): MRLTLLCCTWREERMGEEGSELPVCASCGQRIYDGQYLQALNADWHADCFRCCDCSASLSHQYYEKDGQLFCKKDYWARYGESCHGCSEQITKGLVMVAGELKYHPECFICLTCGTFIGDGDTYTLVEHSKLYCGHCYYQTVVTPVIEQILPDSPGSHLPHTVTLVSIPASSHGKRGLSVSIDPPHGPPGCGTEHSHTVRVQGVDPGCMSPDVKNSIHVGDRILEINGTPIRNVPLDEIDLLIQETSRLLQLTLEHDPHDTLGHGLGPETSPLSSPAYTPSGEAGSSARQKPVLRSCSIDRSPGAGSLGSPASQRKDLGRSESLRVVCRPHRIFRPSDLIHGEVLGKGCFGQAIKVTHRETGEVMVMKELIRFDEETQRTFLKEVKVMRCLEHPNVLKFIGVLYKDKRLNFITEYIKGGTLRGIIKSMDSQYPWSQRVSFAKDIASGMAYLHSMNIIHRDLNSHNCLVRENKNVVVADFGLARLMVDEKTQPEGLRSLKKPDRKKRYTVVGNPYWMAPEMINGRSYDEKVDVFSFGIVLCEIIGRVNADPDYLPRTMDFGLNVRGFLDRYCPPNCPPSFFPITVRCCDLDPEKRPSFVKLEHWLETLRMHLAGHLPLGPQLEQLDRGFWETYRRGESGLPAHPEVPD
Description: as §1, §2

FLT3(R834Q) = biological target: T3, FLT3(R834Q) (Homo sapiens, UniProt P36888, R834Q); assay: KINOMEscan binding assay; conditions: 1 µM i-CDK9; read-out: % Retention on Solid Support
T3 construct: purchased DiscoveRx KINOMEscan
Description: as §1, §2

PIK3C2B = biological target: T4, PIK3C2B (Homo sapiens, UniProt O00750); assay: KINOMEscan binding assay; conditions: read-out: % Retention on Solid Support
T4 construct: purchased DiscoveRx KINOMEscan
T4 sequence (O00750 whole entry): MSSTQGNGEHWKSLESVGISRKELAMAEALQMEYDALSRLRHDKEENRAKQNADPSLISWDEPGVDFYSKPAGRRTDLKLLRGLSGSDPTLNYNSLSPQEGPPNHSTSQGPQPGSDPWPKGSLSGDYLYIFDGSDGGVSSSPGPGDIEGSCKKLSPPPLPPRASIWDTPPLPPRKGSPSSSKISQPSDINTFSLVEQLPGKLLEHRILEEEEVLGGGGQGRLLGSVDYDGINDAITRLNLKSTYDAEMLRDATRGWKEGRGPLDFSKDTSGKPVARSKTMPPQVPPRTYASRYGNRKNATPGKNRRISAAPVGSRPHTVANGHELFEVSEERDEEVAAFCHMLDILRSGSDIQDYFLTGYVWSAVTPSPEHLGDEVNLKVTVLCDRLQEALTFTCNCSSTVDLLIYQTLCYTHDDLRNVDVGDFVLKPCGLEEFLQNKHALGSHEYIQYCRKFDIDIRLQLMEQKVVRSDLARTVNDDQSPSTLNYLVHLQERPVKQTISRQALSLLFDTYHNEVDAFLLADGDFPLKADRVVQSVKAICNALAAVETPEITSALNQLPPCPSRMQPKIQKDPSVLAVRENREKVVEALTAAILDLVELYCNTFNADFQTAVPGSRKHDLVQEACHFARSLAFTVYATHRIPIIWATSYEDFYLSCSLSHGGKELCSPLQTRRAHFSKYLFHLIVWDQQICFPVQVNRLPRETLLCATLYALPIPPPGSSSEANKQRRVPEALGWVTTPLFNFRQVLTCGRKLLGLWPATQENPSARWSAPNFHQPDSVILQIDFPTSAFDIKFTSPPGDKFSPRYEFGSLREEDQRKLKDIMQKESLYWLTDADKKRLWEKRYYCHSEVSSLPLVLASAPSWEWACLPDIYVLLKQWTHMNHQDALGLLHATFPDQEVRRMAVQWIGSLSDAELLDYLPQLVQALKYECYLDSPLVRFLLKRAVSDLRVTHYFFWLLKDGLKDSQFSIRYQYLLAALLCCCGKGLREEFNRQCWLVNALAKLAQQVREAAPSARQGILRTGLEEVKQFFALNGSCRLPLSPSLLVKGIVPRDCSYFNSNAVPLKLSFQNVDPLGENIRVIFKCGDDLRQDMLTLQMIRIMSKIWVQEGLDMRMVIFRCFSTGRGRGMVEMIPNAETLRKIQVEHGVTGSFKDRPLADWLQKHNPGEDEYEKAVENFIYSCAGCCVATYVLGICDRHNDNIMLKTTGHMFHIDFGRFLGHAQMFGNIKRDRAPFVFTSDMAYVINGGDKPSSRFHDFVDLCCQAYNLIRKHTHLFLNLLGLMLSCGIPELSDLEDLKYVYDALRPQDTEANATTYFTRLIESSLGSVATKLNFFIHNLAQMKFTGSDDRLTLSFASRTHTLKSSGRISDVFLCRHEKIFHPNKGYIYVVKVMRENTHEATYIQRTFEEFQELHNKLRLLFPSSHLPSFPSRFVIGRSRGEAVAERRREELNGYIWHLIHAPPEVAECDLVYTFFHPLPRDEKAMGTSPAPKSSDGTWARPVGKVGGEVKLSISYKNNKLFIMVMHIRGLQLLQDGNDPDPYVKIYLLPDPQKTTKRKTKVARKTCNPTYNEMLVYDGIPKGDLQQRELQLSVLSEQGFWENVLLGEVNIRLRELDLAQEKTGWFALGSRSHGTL
Description: as §1, §2

LKB1 = biological target: T5, LKB1 (Homo sapiens, UniProt Q15831); assay: KINOMEscan binding assay; conditions: read-out: % Retention on Solid Support
T5 construct: purchased DiscoveRx KINOMEscan
T5 sequence (Q15831 whole entry): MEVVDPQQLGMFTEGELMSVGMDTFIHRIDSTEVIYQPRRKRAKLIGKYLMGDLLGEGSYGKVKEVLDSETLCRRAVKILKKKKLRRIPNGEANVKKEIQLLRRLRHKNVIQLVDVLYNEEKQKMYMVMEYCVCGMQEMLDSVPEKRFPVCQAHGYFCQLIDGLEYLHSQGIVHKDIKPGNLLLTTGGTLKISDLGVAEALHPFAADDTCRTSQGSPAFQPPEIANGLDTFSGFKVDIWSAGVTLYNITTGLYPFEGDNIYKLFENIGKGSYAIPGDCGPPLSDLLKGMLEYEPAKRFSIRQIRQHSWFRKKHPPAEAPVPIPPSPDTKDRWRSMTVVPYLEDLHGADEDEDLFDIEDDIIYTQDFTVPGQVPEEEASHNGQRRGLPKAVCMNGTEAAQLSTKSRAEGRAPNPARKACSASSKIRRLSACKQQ
Description: as §1, §2

FGFR1 = biological target: T6, FGFR1 (Homo sapiens, UniProt P11362); assay: biochemical binding or enzymatic assay; conditions: Novartis
T6 construct: purchased DiscoveRx KINOMEscan
T6 sequence (P11362 22-822): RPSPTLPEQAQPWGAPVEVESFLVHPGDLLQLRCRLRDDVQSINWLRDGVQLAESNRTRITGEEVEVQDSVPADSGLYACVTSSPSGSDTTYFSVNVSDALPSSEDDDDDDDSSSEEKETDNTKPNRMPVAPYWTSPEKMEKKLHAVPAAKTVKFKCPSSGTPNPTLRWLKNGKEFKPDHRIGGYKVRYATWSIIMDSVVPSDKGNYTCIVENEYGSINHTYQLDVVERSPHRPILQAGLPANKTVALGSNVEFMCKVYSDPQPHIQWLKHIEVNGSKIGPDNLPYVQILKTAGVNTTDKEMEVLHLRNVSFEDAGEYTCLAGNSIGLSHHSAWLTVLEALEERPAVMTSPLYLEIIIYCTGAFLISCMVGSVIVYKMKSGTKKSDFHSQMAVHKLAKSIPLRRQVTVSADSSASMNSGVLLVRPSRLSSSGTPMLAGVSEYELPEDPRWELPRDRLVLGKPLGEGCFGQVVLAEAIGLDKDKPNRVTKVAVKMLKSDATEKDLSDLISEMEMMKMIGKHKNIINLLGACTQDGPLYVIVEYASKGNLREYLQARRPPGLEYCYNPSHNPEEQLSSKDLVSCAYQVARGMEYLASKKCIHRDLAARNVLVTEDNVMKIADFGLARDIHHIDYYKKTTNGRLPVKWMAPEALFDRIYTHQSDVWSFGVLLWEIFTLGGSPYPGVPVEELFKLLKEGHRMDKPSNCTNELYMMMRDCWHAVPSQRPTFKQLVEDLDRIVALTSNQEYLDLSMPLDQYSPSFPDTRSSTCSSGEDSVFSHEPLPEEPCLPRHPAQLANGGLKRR
In short: (§3)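 Dose-dependent follow-up of i-CDK9 against KINOMEscan-screened kinases, run as functional enzyme assays or as binding assays.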

IGF1R = biological target: T7, IGF1R (Homo sapiens, UniProt P08069); assay: biochemical binding or enzymatic assay; conditions: Novartis
T7 construct: purchased DiscoveRx KINOMEscan
In short: as §3

FLT3 = biological target: T8, FLT3 (Homo sapiens, UniProt P36888); assay: biochemical binding or enzymatic assay; conditions: Novartis
T8 construct: purchased DiscoveRx KINOMEscan
In short: as §3

RET = biological target: T9, RET (Homo sapiens, UniProt P07949); assay: biochemical binding or enzymatic assay; conditions: Novartis
T9 construct: purchased DiscoveRx KINOMEscan
In short: as §3

PKN1 = biological target: T10, PKN1 (Homo sapiens, UniProt Q16512); assay: biochemical binding or enzymatic assay; conditions: Novartis
T10 construct: purchased DiscoveRx KINOMEscan
In short: as §3

BTK = biological target: T11, BTK (Homo sapiens, UniProt Q06187); assay: biochemical binding or enzymatic assay; conditions: Novartis
T11 construct: purchased DiscoveRx KINOMEscan
In short: as §3

PDPK1 = biological target: T12, PDPK1 (Homo sapiens, UniProt O15530); assay: biochemical binding or enzymatic assay; conditions: Novartis
T12 construct: purchased DiscoveRx KINOMEscan
T12 sequence (O15530 1-556): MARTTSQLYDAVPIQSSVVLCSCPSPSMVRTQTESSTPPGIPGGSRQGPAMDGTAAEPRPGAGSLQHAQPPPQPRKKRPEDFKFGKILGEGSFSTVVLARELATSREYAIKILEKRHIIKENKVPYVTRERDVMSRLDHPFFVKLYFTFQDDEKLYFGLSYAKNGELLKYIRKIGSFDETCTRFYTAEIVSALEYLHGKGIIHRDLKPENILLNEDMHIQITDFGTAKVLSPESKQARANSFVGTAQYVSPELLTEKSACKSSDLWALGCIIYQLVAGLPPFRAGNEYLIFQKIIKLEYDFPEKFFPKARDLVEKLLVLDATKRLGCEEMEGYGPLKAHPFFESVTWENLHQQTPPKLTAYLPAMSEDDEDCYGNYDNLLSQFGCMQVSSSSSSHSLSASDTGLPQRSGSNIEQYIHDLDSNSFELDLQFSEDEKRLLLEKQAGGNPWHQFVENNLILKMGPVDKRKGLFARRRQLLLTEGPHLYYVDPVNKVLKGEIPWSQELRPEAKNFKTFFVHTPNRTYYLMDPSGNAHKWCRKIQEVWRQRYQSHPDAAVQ
In short: as §3

EPHA4 = biological target: T13, EPHA4 (Homo sapiens, UniProt P54764); assay: biochemical binding or enzymatic assay; conditions: Novartis
T13 construct: purchased DiscoveRx KINOMEscan
In short: as §3

FYN = biological target: T14, FYN (Homo sapiens, UniProt P06241); assay: biochemical binding or enzymatic assay; conditions: Novartis
T14 construct: purchased DiscoveRx KINOMEscan
In short: as §3

ZAP70 = biological target: T15, ZAP70 (Homo sapiens, UniProt P43403); assay: biochemical binding or enzymatic assay
T15 construct: purchased DiscoveRx KINOMEscan
T15 sequence (P43403 1-619): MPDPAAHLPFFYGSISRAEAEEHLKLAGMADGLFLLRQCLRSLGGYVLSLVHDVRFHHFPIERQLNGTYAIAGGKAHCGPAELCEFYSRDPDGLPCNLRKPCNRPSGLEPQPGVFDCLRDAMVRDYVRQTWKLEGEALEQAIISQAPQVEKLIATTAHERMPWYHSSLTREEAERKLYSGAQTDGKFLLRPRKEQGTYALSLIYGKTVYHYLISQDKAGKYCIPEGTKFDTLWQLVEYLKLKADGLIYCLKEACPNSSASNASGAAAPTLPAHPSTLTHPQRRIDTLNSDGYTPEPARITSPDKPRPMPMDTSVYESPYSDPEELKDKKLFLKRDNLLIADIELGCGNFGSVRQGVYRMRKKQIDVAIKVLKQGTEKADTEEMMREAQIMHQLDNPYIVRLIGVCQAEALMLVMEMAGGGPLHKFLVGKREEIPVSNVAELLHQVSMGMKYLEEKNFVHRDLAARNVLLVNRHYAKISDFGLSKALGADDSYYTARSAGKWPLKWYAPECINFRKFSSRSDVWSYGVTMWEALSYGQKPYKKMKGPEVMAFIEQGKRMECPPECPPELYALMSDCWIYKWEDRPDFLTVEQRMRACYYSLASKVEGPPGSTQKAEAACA
In short: as §3

CSNK1G3 = biological target: T16, CSNK1G3 (Homo sapiens, UniProt Q9Y6M4); assay: biochemical binding or enzymatic assay; conditions: Novartis
T16 construct: purchased DiscoveRx KINOMEscan
In short: as §3

FAK = biological target: T17, FAK (Homo sapiens, UniProt Q05397); assay: biochemical binding or enzymatic assay; conditions: Novartis
T17 construct: purchased DiscoveRx KINOMEscan
T17 sequence (Q05397 whole entry): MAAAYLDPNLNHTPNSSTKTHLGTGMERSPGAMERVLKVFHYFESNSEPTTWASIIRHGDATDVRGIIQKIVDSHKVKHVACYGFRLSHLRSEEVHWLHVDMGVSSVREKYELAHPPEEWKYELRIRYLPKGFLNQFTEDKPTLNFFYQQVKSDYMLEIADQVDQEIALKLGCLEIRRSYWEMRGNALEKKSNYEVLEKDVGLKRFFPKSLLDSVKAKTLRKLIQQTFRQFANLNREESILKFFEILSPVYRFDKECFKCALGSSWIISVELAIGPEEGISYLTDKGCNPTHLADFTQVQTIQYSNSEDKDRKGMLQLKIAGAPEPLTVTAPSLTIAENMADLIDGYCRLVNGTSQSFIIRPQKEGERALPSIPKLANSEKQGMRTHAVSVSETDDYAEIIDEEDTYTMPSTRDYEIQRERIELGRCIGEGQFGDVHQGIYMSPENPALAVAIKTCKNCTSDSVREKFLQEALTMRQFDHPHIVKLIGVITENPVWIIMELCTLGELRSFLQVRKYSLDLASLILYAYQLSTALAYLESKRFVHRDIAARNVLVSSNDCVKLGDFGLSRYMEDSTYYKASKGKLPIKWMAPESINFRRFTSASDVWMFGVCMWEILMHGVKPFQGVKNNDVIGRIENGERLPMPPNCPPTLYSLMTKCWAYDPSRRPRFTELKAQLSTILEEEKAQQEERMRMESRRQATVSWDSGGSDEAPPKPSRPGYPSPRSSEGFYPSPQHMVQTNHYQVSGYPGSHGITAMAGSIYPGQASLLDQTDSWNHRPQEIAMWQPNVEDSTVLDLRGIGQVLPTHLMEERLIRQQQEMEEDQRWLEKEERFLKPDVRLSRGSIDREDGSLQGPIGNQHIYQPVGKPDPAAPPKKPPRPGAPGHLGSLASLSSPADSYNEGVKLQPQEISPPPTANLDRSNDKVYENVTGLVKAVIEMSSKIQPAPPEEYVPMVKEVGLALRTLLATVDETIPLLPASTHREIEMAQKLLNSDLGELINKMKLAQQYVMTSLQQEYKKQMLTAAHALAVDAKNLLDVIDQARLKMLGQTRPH
In short: as §3

T1 sequence (Q52WX2 whole entry): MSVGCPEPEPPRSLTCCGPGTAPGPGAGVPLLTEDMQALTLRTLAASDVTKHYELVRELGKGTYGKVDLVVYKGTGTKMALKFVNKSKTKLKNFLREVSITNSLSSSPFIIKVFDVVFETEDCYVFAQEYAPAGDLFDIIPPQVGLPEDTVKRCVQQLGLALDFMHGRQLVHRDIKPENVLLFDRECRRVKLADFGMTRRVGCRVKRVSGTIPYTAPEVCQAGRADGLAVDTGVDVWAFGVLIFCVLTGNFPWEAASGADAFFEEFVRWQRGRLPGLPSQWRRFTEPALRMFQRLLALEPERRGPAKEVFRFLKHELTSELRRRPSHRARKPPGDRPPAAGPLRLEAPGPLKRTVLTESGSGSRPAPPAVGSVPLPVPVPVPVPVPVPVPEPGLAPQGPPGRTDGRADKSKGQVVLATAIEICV

N[C@H]1CC[C@H](Nc2cc(-c3cccc(NCc4cccc(F)c4)n3)c(Cl)cn2)CC1 [i-CDK9, N2′-(trans-4-aminocyclohexyl)-5′-chloro-N6-(3-fluorobenzyl)-2,4′-bipyridine-2′,6-diamine]
95%: remaining binding at 10 µM (PIK3C2B; 10 µM i-CDK9)
90%: remaining binding at 1 µM (LIMK1; 1 µM i-CDK9)
96%: remaining binding at 10 µM (LKB1; 10 µM i-CDK9)
93%: remaining binding at 1 µM (LKB1; 1 µM i-CDK9)
100%: remaining binding at 1 µM (SBK1; 1 µM i-CDK9) | remaining binding at 10 µM (SBK1; 10 µM i-CDK9) | remaining binding at 10 µM (LIMK1; 10 µM i-CDK9) | remaining binding at 1 µM (PIK3C2B; 1 µM i-CDK9)
36%: remaining binding at 1 µM (FLT3(R834Q))
> 10 µM: IC50 (FGFR1) | IC50 (IGF1R) | IC50 (FLT3) | IC50 (RET) | IC50 (PKN1) | IC50 (BTK) | IC50 (PDPK1) | IC50 (EPHA4) | IC50 (FYN) | IC50 (ZAP70) | IC50 (CSNK1G3) | IC50 (FAK)

From article PMC4490784, “Compensatory induction of MYC expression by sustained CDK9 inhibition via a BRD4-dependent mechanism” (eLife, 2015)
